{"source": "paper PMC9034499", "about": "“RORγt agonist enhances anti-PD-1 therapy by promoting monocyte-derived dendritic cells through CXCL10 in cancers” (Journal of Experimental & Clinical Cancer Research : CR, 2022)", "key": {"RORβ": {"target": "T1, RORβ (Homo sapiens, UniProt Q92753)", "T1 construct": "expressed in transfected cells", "T1 sequence (Q92753 1-470)": "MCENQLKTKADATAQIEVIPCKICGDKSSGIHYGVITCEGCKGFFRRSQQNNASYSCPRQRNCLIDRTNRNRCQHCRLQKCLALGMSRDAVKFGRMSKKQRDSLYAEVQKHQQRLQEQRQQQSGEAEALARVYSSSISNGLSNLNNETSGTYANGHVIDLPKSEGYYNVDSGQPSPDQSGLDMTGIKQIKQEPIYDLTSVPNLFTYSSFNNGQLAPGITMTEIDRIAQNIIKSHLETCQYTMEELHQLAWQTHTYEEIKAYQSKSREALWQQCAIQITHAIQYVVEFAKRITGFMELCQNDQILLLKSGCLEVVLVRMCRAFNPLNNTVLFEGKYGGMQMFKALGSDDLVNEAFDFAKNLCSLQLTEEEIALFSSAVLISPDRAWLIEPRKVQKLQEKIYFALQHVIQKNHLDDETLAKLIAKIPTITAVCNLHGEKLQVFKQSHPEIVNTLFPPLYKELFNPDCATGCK", "assay": "RORβ Gal4 reporter gene assay", "format": "cell-based", "description": "The hRORγt LBD coding sequence was inserted into a pBIND expression vector (Promega, E1581) to express the ROR-GAL4 binding domain chimeric receptors. This expression vector and a reporter vector (pGL4.35, which carries a stably integrated GAL4 promoter-driven luciferase reporter gene [luc2P/9XGAL4 UAS/Hygro]) were co-transfected into the HEK293T host cells. The assay was performed according to a previous study. EC50 of the sigmoidal fits were analyzed using Prism 5 and a four-parameter logistic fit equation, Y = bottom + (top–bottom) / (1 + 10(logEC50 − X) × hill slope). \"X\" is the log of compound concentration, and \"Y\" is the response, which increases as X increases. Y starts at \"bottom\" and goes to \"top\" with a sigmoid shape.\nSupplementary file 13046_2022_2289_MOESM2_ESM.pdf: Additional file 2: Fig. S2. Selectivity of RORγt agonists in vitro. […] Lymphoma EL4 cells were treated with various concentrations of 8-074 for 48 hours and analyzed by flow cytometry after Annexin V-FITC/PI staining. […] (h) The relative mRNA expression of Cd19 in B cells as determined by qPCR. […] (i) Relative mRNA expression of Il-1β levels in macrophages as determined by qPCR. ***P < 0.001. (j) Relative mRNA expression of Il-6 in macrophages as determined by qPCR. *P < 0.05. (k) Relative mRNA expression of Il-10 in macrophages as determined by qPCR. *P < 0.05. […]"}, "mouse Tc17 cells": {"system": "mouse Tc17 cells", "assay": "Mouse Th17/Tc17 differentiation dose-response (flow cytometry)", "format": "cell-based", "details": "for pEC50: Mus musculus"}, "LLC tumors": {"system": "LLC tumors", "assay": "LLC syngeneic tumor model", "format": "in vivo, C57BL/6 mice", "description": "All experiments were approved by the IACUC and performed with strict adherence to a series of documents and standards of procedures (SOPs) relative to animal ethics and welfare. The mice were housed in cages with controlled temperature (25 ± 2 °C) and humidity (65 ± 5%) under a 12 h light/dark cycle. After a one-week adaptation period, six to eight-week-old female mice were injected s.c. with LLC (5 × 10^5), B16F10 (2 × 10^5), or MC38 (2 × 10^6) cells into the lower right flank. Approximately seven days after the subcutaneous injection of tumor cells, the mice were randomly divided into four groups. RORγt agonist 8-074, LYC-55716 (BioChemPartner, Shanghai, China) and anti-PD-1 (BioXCell, New Hampshire, USA) treatment commenced when the average tumor size reached 50 mm^3 for LLC and B16F10 and 150 mm^3 for MC38. The 5 × 10^5 LLC cells were transplanted subcutaneously into the right flank of the C57BL/6 mice seven days after being transplanted, and the mice were randomly divided into four groups. Anti-PD-1 was administrated one day after the RORγt agonist was treated (Clone: PMP1-14; 200 μg via intraperitoneal injection on day 1, 4, 7, 10, 13 after treatment with 8-074). For the CD8^+ T cell depletion, mice were injected intraperitoneally (i.p.) with 400 μg of anti-CD8α (YTS 169.4; BioXCell, New Hampshire, USA) one day before and dosed per week after the anti-PD-1 treatment. Mice with established tumors were treated using intraperitoneal injection of 8-074 (indicated dose), LYC-55716 (50 mg/kg) or DMSO (SIGMA, New Jersey, USA) every day. […] The tumor volume based on the caliper measurements was calculated using the modified ellipsoidal equation, where the tumor volume = 1/2 (length × width ^2) and the length was the longer dimension. […] TGI was calculated using the equation: [(Ct – C0) – (Tt – T0)] / (Ct – C0) × 100, where Ct = the mean tumor volume of the control group at the time (t); C0 = the mean tumor volume of the control group at t0; Tt = mean tumor volume of the treatment group at t; and T0 = mean tumor volume of the treatment group at t0."}, "[1]": {"details": "fit of dose-response curve Fig. 1i"}}, "note": "pEC50: −log10 of the molar value. Where two headings read alike, the source gives them in different places."}
{"smiles": "CCS(=O)(=O)c1ccc(CC(=O)Nc2ccc(-c3ccc(CC(C)C)c(C#N)c3)c(C(F)(F)F)c2)cc1", "note": "[8-074]", "values": [{"measurement": "pEC50", "setting": "RORβ", "result": "< 5.00"}, {"measurement": "pEC50", "setting": "mouse Tc17 cells; 8-074 0.001 to 320 nM, Th17% by flow cytometry, read-out: EC50, stimulation of mouse Tc17 cells", "result": 7.95}, {"measurement": "pEC50", "setting": "mouse Tc17 cells; Fig. S2b summary, read-out: mTh17", "result": 7.95}, {"measurement": "HillSlope", "setting": "mouse Tc17 cells; [1]", "result": 1.006}, {"measurement": "Span", "setting": "mouse Tc17 cells; [1]", "result": 111.9}, {"measurement": "TGI", "setting": "LLC tumors; LLC combination study Fig. 3e, anti-PD-1 10 mg/kg every three days i.p., 8-074 i.p. every day", "result": 59.3, "unit": "%"}, {"measurement": "body weight of mice", "setting": "LLC tumors; LLC model, dose escalation", "result": "slight body weight loss"}, {"measurement": "Tumor growth inhibition (TGI)", "setting": "LLC tumors; LLC, 50 mg/kg i.p. QD over two weeks, Fig. 3a", "result": 55.6, "unit": "%"}]}
